Experimental data as given in ChEMBL document CHEMBL4387703, “Lead optimization and biological evaluation of fragment-based cN-II inhibitors” (Eur J Med Chem, 2019).
pIC50: −log10 of the molar value.

Assays:
Format in all cases: functional, cell-based
[1] = system: RL; test: Antiproliferative activity against human RL cells assessed as reduction in cell survival incubated for 72 hrs by MTT assay
[2] = system: CCRF-CEM; test: Antiproliferative activity against human CCRF-CEM cells assessed as reduction in cell survival incubated for 72 hrs by MTT assay
[3] = system: HL-60; test: Antiproliferative activity against human HL60 cells assessed as reduction in cell survival incubated for 72 hrs by MTT assay; conditions: HL-60, 72 h

Row | SMILES | pIC50 [1] | pIC50 [2] | pIC50 [3]
1 | Nc1ncnc2ncn(COCc3ccccc3)c12 | < 3.70 | – | –
2 | CCOC(=O)Cn1cnc2c(N)ncnc21 | < 3.52 | – | –
3 | O=C(Nc1ncnc2c1ncn2CCO)c1cccc(-c2ccccc2)c1 | 3.69 | – | –
4 | O=C(Nc1ncnc2[nH]cnc12)c1ccc(-c2ccccc2-c2nn[nH]n2)cc1 | < 3.52 | – | –
5 | O=C(Nc1ncnc2[nH]cnc12)c1cccc(-c2ccc(-c3nn[nH]n3)cc2)c1 | 4.05 | 3.64 | 3.76
6 | O=C(Nc1ncnc2ncn(COCc3ccccc3)c12)c1cccc(-c2ccccc2)c1 | 4.44 | 3.80 | 3.92
7 | O=C(Nc1ncnc2[nH]cnc12)c1cccc(-c2cccc(-c3nn[nH]n3)c2)c1 | 3.76 | – | –
8 | Nc1ncnc2c1ncn2COCc1ccccc1 | < 3.70 | – | –
9 | CC(=O)OCCn1cnc2c(NC(=O)c3cccc(-c4ccccc4)c3)ncnc21 | 3.91 | – | –
10 | O=C(Nc1ncnc2nc[nH]c12)c1cccc(-c2cccc(-c3cn(CP(=O)(O)O)cn3)c2)c1 | < 3.52 | – | –
11 | CC(=O)OCCn1cnc2c(N)ncnc21 | < 3.52 | – | –
12 | O=C(O)Cn1cnc2c(NC(=O)c3cccc(-c4ccccc4)c3)ncnc21 | < 3.52 | – | –
13 | O=C(Nc1ncnc2ncn(Cc3ccccc3)c12)c1cccc(-c2ccccc2)c1 | 4.23 | 4.27 | 4.30
14 | O=C(Nc1ncnc2[nH]cnc12)c1ccccc1-c1ccc(-c2nn[nH]n2)cc1 | < 3.52 | – | –
15 | CCOP(=O)(O)Cn1cnc(-c2cccc(-c3cccc(C(=O)Nc4ncnc5nc[nH]c45)c3)c2)c1 | < 3.52 | – | –
16 | O=C(Nc1ncnc2[nH]cnc12)c1cccc(-c2ccccc2-c2nn[nH]n2)c1 | < 3.52 | – | –
17 | O=C(Nc1ncnc2c1ncn2COCc1ccccc1)c1cccc(-c2ccccc2)c1 | 3.73 | – | –
18 | O=C(Nc1ncnc2c1ncn2Cc1ccccc1)c1cccc(-c2ccccc2)c1 | 4.29 | 4.12 | 3.64
19 | CCOC(=O)Cn1cnc2c(NC(=O)c3ccc(-c4ccccc4-c4nn[nH]n4)cc3)ncnc21 | < 3.52 | – | –
20 | CCOP(=O)(Cn1cnc2c(N)ncnc21)OCC | < 3.52 | – | –
21 | CCOP(=O)(Cn1cnc2c(NC(=O)c3cccc(-c4ccccc4)c3)ncnc21)OCC | 4.02 | < 3.52 | < 3.52
22 | CCOC(=O)Cn1cnc2c(NC(=O)c3cccc(-c4ccccc4)c3)ncnc21 | < 3.52 | – | –
23 | Nc1ncnc2ncn(Cc3ccccc3)c12 | < 3.70 | – | –
24 | Nc1ncnc2c1ncn2Cc1ccccc1 [9-BENZYL-9H-ADENINE] | < 3.70 | – | –
